Results on 20 molecules are retold here after US9850225B2, “Compounds useful as immunomodulators” (BRISTOL-MYERS SQUIBB COMPANY, priority 2014, dated 2017).

Like-named read-outs stand apart in the source and are kept apart here.

Usually IC50 stands for the concentration at which inhibition is half-maximal.

The target in this assay is PD-1/PD-L1 interaction (PD-1-Ig / PD-L1-His) (Homo sapiens (Human), UniProt Q9NZQ7). The assay is described as follows: PD-1/PD-L1 Homogenous Time-Resolved Fluorescence (HTRF) binding assay. The following applies: PD-1/PD-L1 HTRF binding assay, read-out: Range or IC50. From the text:
The ability of the compounds of formula (I) to bind to PD-L1 was investigated using a PD-1/PD-L1 Homogenous Time-Resolved Fluorescence (HTRF) binding assay.
Homogenous Time-Resolved Fluorescence (HTRF) Binding Assay.
The interaction of PD-1 and PD-L1 can be assessed using soluble, purified preparations of the extracellular domains of the two proteins. The PD-1 and PD-L1 protein extracellular domains were expressed as fusion proteins with detection tags, for PD-1, the tag was the Fc portion of Immunoglobulin (PD-1-Ig) and for PD-L1 it was the 6 histidine motif (PD-L1-His). All binding studies were performed in an HTRF assay buffer consisting of dPBS supplemented with 0.1% […] bovine serum albumin and 0.05% (v/v) Tween-20. For the h/PD-L1-His binding assay, inhibitors were pre-incubated with PD-L1-His (10 nM final) for 15 m in 4 μl of assay buffer, followed by addition of PD-1-Ig (20 nM final) in 1 μl of assay buffer and further incubation for 15 m. HTRF detection was achieved using europium crypate-labeled anti-Ig (1 nM final) and allophycocyanin (APC) labeled anti-His (20 nM final). Antibodies were diluted in HTRF detection buffer and 5 μl was dispensed on top of the binding reaction. […] Additional binding assays were established between the human proteins PD-1-Ig/PD-L2-His (20 & 5 nM, respectively) and CD80-His/PD-L1-Ig (100 & 10 nM, respectively). […]

PD-1/PD-L1 interaction (PD-1-Ig / PD-L1-His), sequence (Q9NZQ7 other isoform, or with tags, fused parts or gaps): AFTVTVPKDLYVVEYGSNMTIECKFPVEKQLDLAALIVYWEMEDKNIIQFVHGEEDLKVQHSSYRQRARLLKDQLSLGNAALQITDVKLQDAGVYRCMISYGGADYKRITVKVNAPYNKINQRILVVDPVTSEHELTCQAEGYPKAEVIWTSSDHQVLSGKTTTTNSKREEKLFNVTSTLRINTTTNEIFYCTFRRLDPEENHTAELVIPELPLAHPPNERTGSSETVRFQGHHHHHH

With `CC(=O)NCCNCc1c(C)cc(OCc2cccc(-c3ccc4c(c3)OCCO4)c2C)cc1OCc1cccc(C#N)c1` [Example 1000, N-(2-(2-(3-cyanobenzyloxy)-4-(3-(2,3-dihydrobenzo[b][1,4]dioxin-6-yl)-2-methylbenzyloxy)-6-methylbenzylamino)ethyl)acetamide], the IC50 (value given as range class) was in the range of 10 to 100 nM.

On to `Cc1cc(OCc2cccc(-c3ccc4c(c3)OCCO4)c2C)cc(OCc2cccc(C#N)c2)c1CN[C@H](CO)C(=O)O` [Example 1002, (R)-2-(2-(3-cyanobenzyloxy)-4-(3-(2,3-dihydrobenzo[b][1,4]dioxin-6-yl)-2-methylbenzyloxy)-6-methylbenzylamino)-3-hydroxypropanoic acid], for which the IC50 (value given as range class) lay in the range of 0.6 to 10 nM.

For `Cc1cc(OCc2cccc(-c3ccc4c(c3)OCCO4)c2C)cc(OCc2cccc(C#N)c2)c1CNC[C@@H](O)CC(=O)O` [Example 1003, (S)-4-(2-(3-cyanobenzyloxy)-4-(3-(2,3-dihydrobenzo[b][1,4]dioxin-6-yl)-2-methylbenzyloxy)-6-methylbenzylamino)-3-hydroxybutanoic acid], under “value given as range class”, the concentration for half-maximal inhibition (IC50) lay in the range of 0.6 to 10 nM.

Consider `CC(=O)NCCNCc1c(C)cc(OCc2cccc(-c3ccc4c(c3)OCCO4)c2C)cc1OCc1cncc(C#N)c1` [Example 1005, N-(2-(2-((5-cyanopyridin-3-yl)methoxy)-4-(3-(2,3-dihydrobenzo[b][1,4]dioxin-6-yl)-2-methylbenzyloxy)-6-methylbenzylamino)ethyl)acetamide], for which the IC50 (value given as range class) was in the range of 0.6 to 10 nM.

With `Cc1cc(OCc2cccc(-c3ccc4c(c3)OCCO4)c2C)cc(OCc2cncc(C#N)c2)c1CNC[C@@H](O)CC(=O)O` [Example 1006, (S)-4-(2-((5-cyanopyridin-3-yl)methoxy)-4-(3-(2,3-dihydrobenzo[b][1,4]dioxin-6-yl)-2-methylbenzyloxy)-6-methylbenzylamino)-3-hydroxybutanoic acid], under “value given as range class”, the IC50 lay within 0.6 to 10 nM.

`Cc1cc(OCc2cccc(-c3ccc4c(c3)OCCO4)c2C)cc(OCc2cncc(C#N)c2)c1CN[C@H](CO)C(=O)O` [Example 1007, (R)-2-(2-((5-cyanopyridin-3-yl)methoxy)-4-(3-(2,3-dihydrobenzo[b][1,4]dioxin-6-yl)-2-methylbenzyloxy)-6-methylbenzylamino)-3-hydroxypropanoic acid]: the IC50 (value given as range class) fell in the range of 0.6 to 10 nM.

Consider `Cc1cc(OCc2cccc(-c3ccc4c(c3)OCCO4)c2C)cc(OCc2cncc(C#N)c2)c1CN[C@](C)(CO)C(=O)O` [Example 1008, (R)-2-(2-((5-cyanopyridin-3-yl)methoxy)-4-(3-(2,3-dihydrobenzo[b][1,4]dioxin-6-yl)-2-methylbenzyloxy)-6-methylbenzylamino)-3-hydroxy-2-methylpropanoic acid], for which, for the setting “value given as range class”, the IC50 was 0.6 to 10 nM.

For the molecule `Cc1cc(OCc2cccc(-c3ccc4c(c3)OCCO4)c2C)cc(OCc2cncc(C#N)c2)c1CN1CCCC[C@H]1C(=O)O` [Example 1009, (S)-1-(2-((5-cyanopyridin-3-yl)methoxy)-4-(3-(2,3-dihydrobenzo[b][1,4]dioxin-6-yl)-2-methylbenzyloxy)-6-methylbenzyl)piperidine-2-carboxylic acid], for the setting “value given as range class”, the IC50 was in the range of 0.6 to 10 nM.

In the case of `Cc1cc(OCc2cccc(-c3ccc4c(c3)OCCO4)c2C)cc(OCc2cncc(C#N)c2)c1CN[C@@](C)(CO)C(=O)O` [Example 1010, (S)-2-(2-((5-cyanopyridin-3-yl)methoxy)-4-(3-(2,3-dihydrobenzo[b][1,4]dioxin-6-yl)-2-methylbenzyloxy)-6-methylbenzylamino)-3-hydroxy-2-methylpropanoic acid], the IC50 (value given as range class) is 0.6 to 10 nM.

For `Cc1c(COc2ccc(CNC[C@@H](O)CC(=O)O)c(OCc3cccc(C#N)c3)c2)cccc1-c1ccccc1` [Example 1011, (S)-4-((2-((3-cyanobenzyl)oxy)-4-((2-methyl-[1,1′-biphenyl]-3-yl)methoxy)benzyl)amino)-3-hydroxybutanoic acid], the IC50 (value given as range class) is 0.6 to 10 nM.

As to `Cc1c(COc2ccc(CN[C@H](C(=O)O)[C@H](C)O)c(OCc3cccc(C#N)c3)c2)cccc1-c1ccccc1` [Example 1012, (2S,3S)-2-((2-((3-cyanobenzyl)oxy)-4-((2-methyl-[1,1′-biphenyl]-3-yl)methoxy)benzyl)amino)-3-hydroxybutanoic acid], the half-inhibitory concentration (IC50) (value given as range class) fell in the range of 10 to 100 nM.

On to `Cc1c(COc2ccc(CN[C@@H](C(=O)O)[C@@H](C)O)c(OCc3cccc(C#N)c3)c2)cccc1-c1ccccc1` [Example 1013, (2R,3R)-2-((2-((3-cyanobenzyl)oxy)-4-((2-methyl-[1,1′-biphenyl]-3-yl)methoxy)benzyl)amino)-3-hydroxybutanoic acid], for which the IC50 (value given as range class) was 0.6 to 10 nM.

Turning to `Cc1c(COc2ccc(CNC(C)(CO)C(=O)O)c(OCc3cccc(C#N)c3)c2)cccc1-c1ccccc1` (centres unmarked) [Example 1014, 2-((2-((3-cyanobenzyl)oxy)-4-((2-methyl-[1,1′-biphenyl]-3-yl)methoxy)benzyl)amino)-3-hydroxy-2-methylpropanoic acid], the IC50 (value given as range class) was in the range of 0.6 to 10 nM.

Turning to `Cc1c(COc2ccc(CN[C@@H](C(=O)O)[C@H](C)O)c(OCc3cccc(C#N)c3)c2)cccc1-c1ccccc1` [Example 1015, (2R,3S)-2-((2-((3-cyanobenzyl)oxy)-4-((2-methyl-[1,1′-biphenyl]-3-yl)methoxy)benzyl)amino)-3-hydroxybutanoic acid], the half-inhibitory concentration (IC50) (value given as range class) lay in the range of 0.6 to 10 nM.

As for `Cc1c(COc2ccc(CN[C@H](CO)C(=O)O)c(OCc3cccc(C#N)c3)c2)cccc1-c1ccccc1` [Example 1016, (R)-2-((2-((3-cyanobenzyl)oxy)-4-((2-methyl-[1,1′-biphenyl]-3-yl)methoxy)benzyl)amino)-3-hydroxypropanoic acid], the half-inhibitory concentration (IC50) (numeric value) came to 4.55 nM.

Take `Cc1c(COc2ccc(CNC(CO)C(=O)O)c(OCc3cccc(C#N)c3)c2)cccc1-c1ccccc1` (centres unmarked) [Example 1017, 2-((2-((3-cyanobenzyl)oxy)-4-((2-methyl-[1,1′-biphenyl]-3-yl)methoxy)benzyl)amino)-3-hydroxypropanoic acid]: for the setting “value given as range class”, the IC50 is 0.6 to 10 nM.

As to `Cc1c(COc2ccc(CN[C@@H](CO)C(=O)O)c(OCc3cccc(C#N)c3)c2)cccc1-c1ccccc1` [Example 1018, (S)-2-((2-((3-cyanobenzyl)oxy)-4-((2-methyl-[1,1′-biphenyl]-3-yl)methoxy)benzyl)amino)-3-hydroxypropanoic acid], the IC50 (value given as range class) lay in the range of 0.6 to 10 nM.

For `Cc1c(COc2ccc(CN[C@@](C)(CO)C(=O)O)c(OCc3cccc(C#N)c3)c2)cccc1-c1ccccc1` [Example 1019, (S)-2-((2-((3-cyanobenzyl)oxy)-4-((2-methyl-[1,1′-biphenyl]-3-yl)methoxy)benzyl)amino)-3-hydroxy-2-methylpropanoic acid], the IC50 (value given as range class) lay in the range of 0.6 to 10 nM.

Take `Cc1c(COc2ccc(CNC(CO)(C(=O)O)C(C)C)c(OCc3cccc(C#N)c3)c2)cccc1-c1ccccc1` (centres unmarked) [Example 1020, 2-((2-((3-cyanobenzyl)oxy)-4-((2-methyl-[1,1′-biphenyl]-3-yl)methoxy)benzyl)amino)-2-(hydroxymethyl)-3-methylbutanoic acid]: the IC50 (value given as range class) lay in the range of 10 to 100 nM.

Take `Cc1c(COc2ccc(CN[C@H](CO)CC(=O)O)c(OCc3cccc(C#N)c3)c2)cccc1-c1ccccc1` [Example 1021, (S)-3-((2-((3-cyanobenzyl)oxy)-4-((2-methyl-[1,1′-biphenyl]-3-yl)methoxy)benzyl)amino)-4-hydroxybutanoic acid]: the half-inhibitory concentration (IC50) (value given as range class) lay in the range of 0.6 to 10 nM.
